pIC50: −log10 of the molar value.

As a reminder, the inhibition is the share of the control response that was lost under treatment. What is called pIC50 is the negative decadic logarithm of the IC50, by convention in mol/L.

The first assay addresses T1, human oxytocin receptor (Homo sapiens, UniProt P30559).
T1 construct: host or cells: CHO cells, stably transfected (pcDNA3.1 vector)
T1 sequence (P30559 1-389): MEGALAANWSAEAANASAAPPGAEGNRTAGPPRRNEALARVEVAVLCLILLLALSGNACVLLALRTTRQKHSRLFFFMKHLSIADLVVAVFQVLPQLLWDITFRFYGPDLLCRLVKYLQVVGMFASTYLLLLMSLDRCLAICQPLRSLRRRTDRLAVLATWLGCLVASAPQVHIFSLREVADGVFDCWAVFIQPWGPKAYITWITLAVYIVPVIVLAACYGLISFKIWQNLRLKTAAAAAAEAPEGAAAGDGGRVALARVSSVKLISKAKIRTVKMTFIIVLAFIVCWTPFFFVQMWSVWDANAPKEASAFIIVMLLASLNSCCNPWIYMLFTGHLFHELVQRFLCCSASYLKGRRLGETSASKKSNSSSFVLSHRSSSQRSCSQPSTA
Briefly: Oxytocin binding in CHO cell membranes expressing human oxytocin receptors ([3H]oxytocin radioligand binding). Particulars: 100 nM, read-out: OT % inhibition @ 100 nM. In a few lines: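 Values are % inhibition at one concentration or nM IC50 from [3H]oxytocin displacement. Membranes from human oxytocin receptor CHO cells, 25–50 μg protein/well, 60 min at room temperature, pH 7.4 Tris buffer with protease inhibitors; bound label by filtration and scintillation counting.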
Turning to `COc1ccccc1-c1ccc(C(=O)N2Cc3ccc(C(=O)N(C)CCc4ccccn4)n3Cc3ccccc32)cc1C` [Example 65, 10-[(2′-Methoxy-2-methyl-[1,1′-biphenyl]-4-yl)carbonyl]-N-methyl-N-[2-(2-pyridinyl)ethyl]-10,11-dihydro-5H-pyrrolo[2,1-c][1,4]benzodiazepine-3-carboxamide], the inhibition at 0.1 µM came to 95%.

For the compound `Cc1ccccc1-c1ccc(C(=O)N2Cc3ccc(C(=O)N(C)CCc4ccccn4)n3Cc3ccccc32)cc1C` [Example 66, 10-[(2,2′-Dimethyl-[1,1′-biphenyl]-4-yl)carbonyl]-N-methyl-N-[2-(2-pyridinyl)ethyl]-10,11-dihydro-5H-pyrrolo[2,1-c][1,4]benzodiazepine-3-carboxamide], the inhibition at 0.1 µM stood at 92%.

For `COc1ccccc1-c1ccc(C(=O)N2Cc3ccc(C(=O)N(C)CCc4ccccn4)n3Cc3ccccc32)cc1` [Example 67, 10-[(2′-Methoxy-[1,1′-biphenyl]-4-yl)carbonyl]-N-methyl-N-[2-(2-pyridinyl)ethyl]-10,11-dihydro-5H-pyrrolo[2,1-c][1,4]benzodiazepine-3-carboxamide], the inhibition at 0.1 µM worked out at 91%.

In the case of `Cc1ccccc1-c1ccc(C(=O)N2Cc3ccc(C(=O)N(C)CCc4ccccn4)n3Cc3ccccc32)cc1` [Example 68, N-Methyl-10-[(2′-methyl-[1,1′-biphenyl]-4-yl)carbonyl]-N-[2-(2-pyridinyl)ethyl]-10,11-dihydro-5H-pyrrolo[2,1-c][1,4]benzodiazepine-3-carboxamide], the inhibition at 0.1 µM turned out to be 93%.

Turning to `COc1cc(C(=O)N2Cc3ccc(C(=O)N(C)CCc4ccccn4)n3Cc3ccccc32)ccc1-c1ccccc1C` [Example 69, 10-[(2-Methoxy-2′-methyl-[1,1′-biphenyl]-4-yl)carbonyl]-N-methyl-N-[2-(2-pyridinyl)ethyl]-10,11-dihydro-5H-pyrrolo[2,1-c][1,4]benzodiazepine-3-carboxamide], the inhibition at 0.1 µM amounted to 94%.

On to `COc1cccc(-c2cc(OC)c(C(=O)N3Cc4ccc(C(=O)N(C)CCc5ccccn5)n4Cc4ccccc43)cc2Cl)c1` [Example 70, 10-[(6-Chloro-3,3′-dimethoxy-[1,1′-biphenyl]-4-yl)carbonyl]-N-methyl-N-[2-(2-pyridinyl)ethyl]-10,11-dihydro-5H-pyrrolo[2,1-c][1,4]benzodiazepine-3-carboxamide], for which the inhibition at 0.1 µM turned out to be 77%.

For `COc1cc(C(=O)N2Cc3ccc(C(=O)N(C)CCc4ccccn4)n3Cc3ccccc32)ccc1-c1cccc2ccccc12` [Example 71, 10-[3-Methoxy-4-(naphthalen-1-yl)benzoyl]-N-methyl-N-[2-(2-pyridinyl)ethyl]-10,11-dihydro-5H-pyrrolo[2,1-c][1,4]benzodiazepine-3-carboxamide], the inhibition at 0.1 µM came to 81%.

On to `COc1cccc(-c2ccc(C(=O)N3Cc4ccc(C(=O)N(C)CCc5ccccn5)n4Cc4ccccc43)cc2OC)c1` [Example 72, 10-[(2,3′-Dimethoxy-[1,1′-biphenyl]-4-yl)carbonyl]-N-methyl-N-[2-(2-pyridinyl)ethyl]-10,11-dihydro-5H-pyrrolo[2,1-c][1,4]benzodiazepine-3-carboxamide], for which the inhibition at 0.1 µM is 89%.

Regarding `CN(CCc1ccccn1)C(=O)c1ccc2n1Cc1ccccc1N(C(=O)c1ccc(-c3cccc4ccccc34)cc1Cl)C2` [Example 73, 10-[2-Chloro-4-(naphthalen-1-yl)benzoyl]-N-methyl-N-[2-(2-pyridinyl)ethyl]-10,11-dihydro-5H-pyrrolo[2,1-c][1,4]benzodiazepine-3-carboxamide], the inhibition at 0.1 µM was found to be 32%.

`Cc1cc(C(=O)N2Cc3ccc(C(=O)N(C)CCc4ccccn4)n3Cc3ccccc32)ccc1-c1ccccc1C(F)(F)F` [Example 74, N-Methyl-10-{[2-methyl-2′-trifluoromethyl-[1,1′-biphenyl]-4-yl]carbonyl}-N-[2-(2-pyridinyl)ethyl]-10,11-dihydro-5H-pyrrolo[2,1-c][1,4]benzodiazepine-3-carboxamide]: the inhibition at 0.1 µM was found to be 91%.

Consider `COc1ccccc1-c1ccc(C(=O)N2Cc3ccc(C(=O)N4CCN(c5ccccn5)CC4)n3Cc3ccccc32)cc1C` [Example 75, {10-[(2′-Methoxy-2-methyl-[1,1′-biphenyl]-4-yl)carbonyl]-10,11-dihydro-5H-pyrrolo[2,1-c][1,4]benzodiazepin-3-yl}[4-(2-pyridinyl)-1-piperazinyl]methanone], for which the inhibition at 0.1 µM is 62%.

On to `Cc1ccccc1-c1ccc(C(=O)N2Cc3ccc(C(=O)N4CCN(c5ccccn5)CC4)n3Cc3ccccc32)cc1C` [Example 76, {10-[(2,2′-Dimethyl-[1,1′-biphenyl]-4-yl)carbonyl]-10,11-dihydro-5H-pyrrolo[2,1-c][1,4]benzodiazepin-3-yl}[4-(2-pyridinyl)-1-piperazinyl]methanone], for which the inhibition at 0.1 µM was determined as 62%.

On to `COc1cccc(-c2ccc(C(=O)N3Cc4ccc(C(=O)N5CCN(c6ccccn6)CC5)n4Cc4ccccc43)cc2C)c1` [Example 77, {10-[(3′-Methoxy-2-methyl-[1,1′-biphenyl]-4-yl)carbonyl]-10,11-dihydro-5H-pyrrolo[2,1-c][1,4]benzodiazepin-3-yl}[4-(2-pyridinyl)-1-piperazinyl]methanone], for which the inhibition at 0.1 µM stood at 21%.

Consider `COc1ccccc1-c1ccc(C(=O)N2Cc3ccc(C(=O)N4CCN(c5ccccn5)CC4)n3Cc3ccccc32)cc1` [Example 78, {10-[(2′-Methoxy-[1,1′-biphenyl]-4-yl)carbonyl]-10,11-dihydro-5H-pyrrolo[2,1-c][1,4]benzodiazepin-3-yl}[4-(2-pyridinyl)-1-piperazinyl]methanone], for which the inhibition at 0.1 µM was 59%.

`Cc1ccccc1-c1ccc(C(=O)N2Cc3ccc(C(=O)N4CCN(c5ccccn5)CC4)n3Cc3ccccc32)cc1` [Example 79, {10-[(2′-Methyl-[1,1′-biphenyl]-4-yl)carbonyl]-10,11-dihydro-5H-pyrrolo[2,1-c][1,4]benzodiazepin-3-yl}[4-(2-pyridinyl)-1-piperazinyl]methanone]: the inhibition at 0.1 µM came out at 49%.

In the case of `COc1cc(C(=O)N2Cc3ccc(C(=O)N4CCN(c5ccccn5)CC4)n3Cc3ccccc32)ccc1-c1ccccc1C` [Example 80, {10-[(2-Methoxy-2′-methyl-[1,1′-biphenyl]-4-yl)carbonyl]-10,11-dihydro-5H-pyrrolo[2,1-c][1,4]benzodiazepin-3-yl}[4-(2-pyridinyl)-1-piperazinyl]methanone], the inhibition at 0.1 µM is 50%.

The same assay, now with this note: value in parentheses, read-out: OT (IC50).
`Cc1cc(C(=O)N2Cc3ccc(C(=O)N4CCN(c5ccncc5)CC4)n3Cc3ccccc32)ccc1-c1ccccc1C(F)(F)F` [Example 1]: the pIC50 was 7.95.

For `Cc1cc(C(=O)N2Cc3ccc(C(=O)N4CCN(Cc5ccc[n+]([O-])c5)CC4)n3Cc3ccccc32)ccc1-c1ccccc1C(F)(F)F` [Example 2, 10-{[2-Methyl-2′-trifluoromethyl-[1,1′-biphenyl]-4-yl]carbonyl}-3-({4-[(1-oxidopyridin-3-yl)methyl]piperazin-1-yl}carbonyl)-10,11-dihydro-5H-pyrrolo[2,1-c][1,4]benzodiazepine], the pIC50 is 7.77.

As for `Cc1cc(C(=O)N2Cc3ccc(C(=O)N4CCN(Cc5ccc[n+]([O-])c5C)CC4)n3Cc3ccccc32)ccc1-c1ccccc1C(F)(F)F` [Example 3, 3-({4-[(2-Methyl-1-oxidopyridin-3-yl)methyl]piperazin-1-yl}carbonyl)-10-{[2-methyl-2′-trifluoromethyl-[1,1′-biphenyl]-4-yl]carbonyl}-10,11-dihydro-5H-pyrrolo[2,1-c][1,4]benzodiazepine], the negative logarithm of the IC50 (pIC50) was 7.35.

As for `Cc1cc(C(=O)N2Cc3ccc(C(=O)N(C)Cc4ccc[n+]([O-])c4)n3Cc3ccccc32)ccc1-c1ccccc1C(F)(F)F` [Example 4, N-Methyl-10-{[2-methyl-2′-trifluoromethyl-[1,1′-biphenyl]-4-yl]carbonyl}-N-[(1-oxidopyridin-3-yl)methyl]-10,11-dihydro-5H-pyrrolo[2,1-c][1,4]benzodiazepine-3-carboxamide], the pIC50 is 8.61.

Consider `COc1cc(C(=O)N2Cc3ccc(C(=O)N(C)Cc4cccnc4)n3Cc3ccccc32)ccc1-c1ccccc1C(F)(F)F` [Example 7, 10-{[2-Methoxy-2′-trifluoromethyl-[1,1′-biphenyl]-4-yl]carbonyl}-N-methyl-N-(pyridin-3-ylmethyl)-10,11-dihydro-5H-pyrrolo[2,1-c][1,4]benzodiazepine-3-carboxamide], for which the pIC50 is 8.48.

Turning to `COc1cccc(-c2ccc(C(=O)N3Cc4ccc(C(=O)N(C)CCc5ccccn5)n4Cc4ccccc43)cc2C)c1` [Example 62, 10-[(3′-Methoxy-2-methyl-[1,1′-biphenyl]-4-yl)carbonyl]-N-methyl-N-[2-(2-pyridinyl)ethyl]-10,11-dihydro-5H-pyrrolo[2,1-c][1,4]benzodiazepine-3-carboxamide], the negative logarithm of the IC50 (pIC50) is 7.97.

For `COc1cc(-c2ccccc2C)c(Cl)cc1C(=O)N1Cc2ccc(C(=O)N(C)CCc3ccccn3)n2Cc2ccccc21` [Example 63, 10-[(6-Chloro-3-methoxy-2′-methyl-[1,1′-biphenyl]-4-yl)carbonyl]-N-methyl-N-[2-(2-pyridinyl)ethyl]-10,11-dihydro-5H-pyrrolo[2,1-c][1,4]benzodiazepine-3-carboxamide], the pIC50 was 8.29.

The values are drawn from US7064120B2, “Tricyclic pyridyl carboxamides and derivatives thereof tocolytic oxytocin receptor antagonists” (Wyeth, priority 2001, dated 2006).
